Assay results published in patent US20210052600A1, “THERAPEUTIC AGENTS FOR STRESS URINARY INCONTINENCE AND INCOTINENCE OF FECES” (Takeda Pharmaceutical Company Limited, priority 2017, published 2021).

Key:
urethral resistance [1] = experiment: Rat urethral resistance (LPP) measured by high speed infusion of saline into the bladder; type: in vivo; conditions: for LPP Post: 30 minutes after administration; for LPP Post / LPP Increase / LPP Pre: mean ± SEM; for LPP Increase: Post minus Pre; for LPP Pre: before administration
Excerpt: The rats were anesthetized with isoflurane. Their spinal cord was transected at the T8-T9 (the eighth thoracic cord—the ninth thoracic cord) level. After opening of the bladder dome, two polyethylene tubes (PE-100) were inserted into the bladder. The incised portion of the bladder was closed with sutures, and the other incisions were also closed. The rats were placed in Bollman cages. The catheter for intravesical pressure measurement was connected to a pressure transducer, while the catheter for saline filling was connected to a syringe filled with Evans Blue-dyed saline. Change in intravesical pressure was recorded using the pressure transducer via an electric signal amplifier and an analog-to-digital converter. After recovery of the animals from anesthesia, the intravesical pressure measurement was started, and saline was infused at a speed of 0.1 mL/sec into the bladder using an infusion pump. The infusion was stopped when the leakage of the saline from the urethral orifice was observed. Immediately thereafter, the bladder was emptied by releasing the pressure. In this operation, the peak of recorded intravesical pressure during the saline infusion was used as LPP in this Example. This measurement was repeated, and the average LPP from the last three measurements was used as the LPP value of the trial. The mean from 2 such trials was used as a Pre value. 0.5% MC was used as the vehicle. […] The difference in LPP from the Pre value (increased amount of LPP) was calculated. Regarding change in LPP before and after drug administration, the differences between the mean values of the drug-treated and vehicle-treated groups were analyzed by the one-tailed Williams' test.

urethra-closing response = experiment: MT (threshold inducing urethra-closing response) under transcranial magnetic stimulation in healthy female volunteers; type: in vivo, human
Experimental: The test subjects were healthy female volunteers having a body weight of at least 45 kg (average: 50.91 kg, standard deviation: 3.346) and a BMI value of 18.5 kg/m^2 to 25.0 kg/m^2 (average: 19.57 kg/m^2, standard deviation: 0.929).
A washout period of at least 7 days was provided between the treatments.
A capsule containing 40 mg of duloxetine was orally administered as duloxetine together with water. A placebo capsule containing saccharose and spherical starch granules was orally administered as a placebo for duloxetine together with water.
Specifically, during the TMS, the output of a magnetic stimulator (Magstim Rapid Square, manufactured by Magstim Co., Ltd.) was increased by 5% each time using 110 mm double cone coil, and the minimum output at which urethra-closing response occurred abruptly was determined and used as MT (%). The urethra-closing response was detected by measuring contractile responses within the urethra. The contractile response within the urethra was measured using Duet Logic G2 (manufactured by Mediwatch Ltd.) and UniTip (manufactured by Unisensor AG). MT was measured again after administration of each drug, and the rate of change (%) from the baseline was calculated. The rate of change was determined by dividing MT after administration of each drug by MT before administration.

[2] = Plasma concentration of Compound A in healthy female volunteers after a single oral dose of Compound A′; conditions: no unit in table (ng/mL)
Experimental: In each period, the test subjects received any of Treatments A to D once according to Table 10, and change in the plasma concentration of the administered compound was measured over 24 hours after each Treatment.
Specifically, 100 mL of the injectable water containing 20 mg or 90 mg of Compound A′ based on its free form was supplemented with a sweetener, and this solution was orally administered as Compound A′. As a placebo for Compound A′, 100 mL of the injectable water was supplemented with a sweetener, and this solution was orally administered.

urethral resistance [3] = experiment: Urethral resistance (LPP) during intravesical pressure rise by electrical stimulation of rat abdominal muscle; type: in vivo; conditions: mean ± SEM; for LPP Post: 30 minutes after administration; for LPP Increase: Post minus Pre; for LPP Pre: before administration
Experimental: Fifty six female rats of Sprague-Dawley strain (hereinafter, referred to as “SD strain”) were used. The rats were anesthetized with urethane, and their spinal cord was transected at the T8-T9 (the eighth thoracic cord—the ninth thoracic cord) level for the elimination of reflex voiding. Isoflurane inhalation was added, if necessary. After opening of the abdomen, a catheter (PE-100) was inserted into the bladder. In order to secure reduced urethral resistance, unilateral nerve to iliococcygeus and pubococcygeus muscles was transected. For intraduodenal administration, another catheter (PE-50) was inserted into the duodenum in advance. The abdominal muscle and skin were each closed with sutures. Two (right and left) sites of abdominal skin near the diaphragm were cut to expose abdominal muscle. The bladder was emptied through the catheter, followed by the injection of 0.2 to 0.3 mL of 0.1% Evans blue solution. Change in intravesical pressure was recorded using the bladder catheter via a pressure transducer, an electric signal amplifier, and an analog-to-digital converter. While change in intravesical pressure was recorded, the presence or absence of fluid leakage from the urethral orifice was observed under the electrical stimulation of the exposed abdominal muscle using an electrical stimulator and an isolator. […] The peak of the intravesical pressure during the stimulation of the abdominal muscle was measured, and the lowest pressure at which the fluid leakage was observed among the trials was defined as leak point pressure (hereinafter, referred to as “LPP”) for the electrical abdominal muscle stimulation method and used as an index for urethral resistance. Each drug was evaluated for its effect by comparing LPP before drug administration with that after drug administration. […] The drugs were suspended in 0.5% methylcellulose solution (MC). […] LPP was measured again 30 minutes after administration. Regarding change in LPP before and after drug administration, the differences between the mean values of the drug-treated and vehicle groups were analyzed by the one-tailed Williams' test.

human 5-HT2C receptors = molecular target: T1, human 5-HT2C receptors (Homo sapiens, UniProt P28335); experiment: In vitro test of agonistic potency on human 5-HT2C receptor (change in intracellular Ca2+); type: cell-based; conditions: CHO-K1 cells expressing recombinant human 5-HT2C receptors; intracellular Ca2+ (Fluo-4)
T1 construct: expressed in transfected cells; host or cells: CHO-K1 cells
T1 sequence (P28335 33-458): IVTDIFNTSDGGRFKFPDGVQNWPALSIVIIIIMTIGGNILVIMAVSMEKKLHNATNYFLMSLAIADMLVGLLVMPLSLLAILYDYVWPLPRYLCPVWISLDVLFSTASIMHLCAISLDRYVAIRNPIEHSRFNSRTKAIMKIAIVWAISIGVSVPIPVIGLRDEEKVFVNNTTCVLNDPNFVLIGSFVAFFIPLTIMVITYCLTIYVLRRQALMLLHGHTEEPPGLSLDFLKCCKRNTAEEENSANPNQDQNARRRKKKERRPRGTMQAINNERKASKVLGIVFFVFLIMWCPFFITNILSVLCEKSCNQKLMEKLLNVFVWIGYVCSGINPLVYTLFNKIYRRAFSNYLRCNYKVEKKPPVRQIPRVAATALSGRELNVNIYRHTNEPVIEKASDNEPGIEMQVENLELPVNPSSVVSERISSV

[4] = tested on: urethra-closing reflex response; experiment: Urethra-closing reflex response induced by intravesical pressure rise in rats; type: in vivo, rat; conditions: 3 mg/kg i.d., mean ± SEM
Experimental: Thirty-two female rats of SD strain were used. The rats were anesthetized with urethane. Isoflurane inhalation was added during the surgery, if necessary. Their spinal cord was transected at the T8-T9 (the eighth thoracic cord—the ninth thoracic cord) level to eliminate the reflex voiding and to inhibit the transition from the urine storage phase to the voiding phase in the voiding cycle. After opening of the abdomen, the bladder neck was ligated with suture, and a catheter (PE-100) was inserted into the bladder. The bladder catheter was connected to a pressure transducer and a saline-containing reservoir via three-way stopcocks. A microtip transducer catheter was inserted from the urethral orifice toward the bladder so that its transducer was inserted into the urethra. Local change in pressure within the urethra (intraurethral pressure) was recorded via an electric signal amplifier and an analog-to-digital converter. […] Then, the reservoir was brought back to the original position to adjust the intravesical pressure to its baseline. Such change in intraurethral pressure induced by intravesical pressure rise was repeatedly measured, and the mean value from the last 2 trials was used as a Pre value. The vehicle used was 0.5% MC. […] Thirty minutes after administration, the change in intraurethral pressure induced by intravesical pressure rise was measured again and used as a Post value. The average value before intravesical pressure rise was subtracted from the average value during intravesical pressure rise, and the subtracted value was used as urethra-closing reflex response. The ratio of the Post value to the Pre value was calculated.

[5] = tested on: anus-closing function increasing effect of Compound A′; experiment: Influence of SB 242084 on Compound A′-induced rat anus-closing function increasing effect (Anal LPP); type: in vivo; conditions: vehicle i.v. then Compound A′ 1 mg/kg i.v.; 5 minutes after Compound A′; n=9
Experimental: Eighteen female SD rats were used. After overnight fasting, rats were intraperitoneally administered with urethane for anesthesia, and isoflurane inhalation was added during surgery. The abdomen was incised to expose the rectum, and a small incision of the rectum was made. A polyethylene catheter (SP61, Natsume) was inserted into the rectum through the rectum incision, and the tip of the catheter was positioned around 5 mm from the anal orifice. The other end of the catheter was connected with a pressure transducer and an infusion pump via three-way stopcocks, and the change in pressure in the rectum was measured using the pressure transducer, an electric signal amplifier, and an analog-to-digital converter. For administrating drugs, a polyethylene catheter (SP45, Natsume) was inserted into the femoral vein after exposing the vein by small incision.
After recovery period from surgery, while saline was infused at a speed of 0.1 mL/sec into the rectum using an infusion pump, change in the measured pressure—was observed. […] The peak value of the pressure recorded in the rectum during the course of the procedures was defined as “an Anal LPP” in this Example. […] The Anal LPP was again measured in the same way 5 minutes after the administration with Compound A′. The difference in Anal LPP from the Pre value (increased amount of Anal LPP) was calculated. […]

[6] = 20 mg single oral dose, Predose
[7] = 90 mg single oral dose, Predose

## CC(C)N(C)c1cnc2c(n1)OCCNC2.Cl [Compound A′, N-methyl-N-(1-methylethyl)-6,7,8,9-tetrahydropyrazino[2,3-f][1,4]oxazeine-3-amine]
Urethral resistance [1]; 1.25 mg/kg p.o.
  LPP Post: 63.2 ± 4.7 cmH2O
  LPP Increase: 5.5 ± 3.0 cmH2O
  LPP Pre: 57.7 ± 3.6 cmH2O
Urethral resistance [1]; 2.5 mg/kg p.o.
  LPP Post: 70.2 ± 3.8 cmH2O
  LPP Increase: 10.9 ± 2.2 cmH2O
  LPP Pre: 59.2 ± 2.6 cmH2O
Urethral resistance [1]; 5 mg/kg p.o.
  LPP Post: 75.9 ± 3.3 cmH2O
  LPP Increase: 15.3 ± 3.7 cmH2O
  LPP Pre: 60.6 ± 3.6 cmH2O
Urethral resistance [1]; 10 mg/kg p.o.
  LPP Post: 78.4 ± 5.6 cmH2O
  LPP Increase: 21.7 ± 4.4 cmH2O
  LPP Pre: 56.7 ± 2.4 cmH2O
Urethral resistance [1]; 20 mg/kg p.o.
  LPP Post: 77.7 ± 3.5 cmH2O
  LPP Increase: 21.5 ± 3.4 cmH2O
  LPP Pre: 56.3 ± 5.1 cmH2O
Urethral resistance [1]; oral administration, high speed saline infusion method
  LPP10, the dose that increases LPP by 10 cm H2O: 1.6 mg/kg
urethra-closing response; 20 mg group, at 0.5 hours post dose
  maximum change from baseline in MT in response to TMS: −8.1%
urethra-closing response; 20 mg single oral dose, 0.5 hr
  MT of the urethra-closing response in response to TMS, Mean: 58.1%
  Rate of change from baseline of MT of the urethra-closing response in response to TMS, Mean: −8.1%
urethra-closing response; 20 mg single oral dose, 2 hr
  MT of the urethra-closing response in response to TMS, Mean: 59.0%
  Rate of change from baseline of MT of the urethra-closing response in response to TMS, Mean: −7.3%
urethra-closing response; 20 mg single oral dose, 6 hr
  MT of the urethra-closing response in response to TMS, Mean: 64.2%
  Rate of change from baseline of MT of the urethra-closing response in response to TMS, Mean: −2.1%
urethra-closing response; [6]
  MT of the urethra-closing response in response to TMS, Mean: 66.3%
urethra-closing response; 90 mg group, at 3 hours post dose
  maximum change from baseline in MT in response to TMS: −17.2%
urethra-closing response; 90 mg single oral dose, 0.5 hr
  MT of the urethra-closing response in response to TMS, Mean: 55.9%
  Rate of change from baseline of MT of the urethra-closing response in response to TMS, Mean: −14.1%
urethra-closing response; 90 mg single oral dose, 2 hr
  MT of the urethra-closing response in response to TMS, Mean: 52.8%
  Rate of change from baseline of MT of the urethra-closing response in response to TMS, Mean: −17.2%
urethra-closing response; 90 mg single oral dose, 6 hr
  MT of the urethra-closing response in response to TMS, Mean: 56.3%
  Rate of change from baseline of MT of the urethra-closing response in response to TMS, Mean: −13.7%
urethra-closing response; [7]
  MT of the urethra-closing response in response to TMS, Mean: 70.0%
[2]; 20 mg single oral dose, 0.5 hr
  plasma concentration of compound A, Mean: 29.21
  plasma concentration of compound A, Median: 28.40
[2]; 20 mg single oral dose, 1 hr
  plasma concentration of compound A, Mean: 25.19
  plasma concentration of compound A, Median: 24.10
[2]; 20 mg single oral dose, 2 hr
  plasma concentration of compound A, Mean: 20.46
  plasma concentration of compound A, Median: 19.20
[2]; 20 mg single oral dose, 3 hr
  plasma concentration of compound A, Mean: 14.38
  plasma concentration of compound A, Median: 13.10
[2]; 20 mg single oral dose, 6 hr
  plasma concentration of compound A, Mean: 3.476
  plasma concentration of compound A, Median: 3.760
[2]; 20 mg single oral dose, 8 hr
  plasma concentration of compound A, Mean: 1.416
  plasma concentration of compound A, Median: 1.590
[2]; 20 mg single oral dose, 12 hr
  plasma concentration of compound A, Mean: 0.1327
  plasma concentration of compound A, Median: 0.000
[2]; [6]
  plasma concentration of compound A, Mean: 0.000
  plasma concentration of compound A, Median: 0.000
[2]; 90 mg single oral dose, 0.5 hr
  plasma concentration of compound A, Mean: 127.3
  plasma concentration of compound A, Median: 114.0
[2]; 90 mg single oral dose, 1 hr
  plasma concentration of compound A, Mean: 126.0
  plasma concentration of compound A, Median: 113.0
[2]; 90 mg single oral dose, 2 hr
  plasma concentration of compound A, Mean: 152.8
  plasma concentration of compound A, Median: 145.0
[2]; 90 mg single oral dose, 3 hr
  plasma concentration of compound A, Mean: 122.4
  plasma concentration of compound A, Median: 127.0
[2]; 90 mg single oral dose, 6 hr
  plasma concentration of compound A, Mean: 52.81
  plasma concentration of compound A, Median: 47.30
[2]; 90 mg single oral dose, 8 hr
  plasma concentration of compound A, Mean: 24.69
  plasma concentration of compound A, Median: 20.30
[2]; 90 mg single oral dose, 12 hr
  plasma concentration of compound A, Mean: 5.612
  plasma concentration of compound A, Median: 4.450
[2]; [7]
  plasma concentration of compound A, Mean: 0.000
  plasma concentration of compound A, Median: 0.000
Urethral resistance [3]; 0.3 mg/kg i.d.
  LPP Post: 55.0 ± 5.4 cmH2O
  LPP Increase: 7.8 ± 3.2 cmH2O
  LPP Pre: 47.2 ± 5.7 cmH2O
Urethral resistance [3]; 1 mg/kg i.d.
  LPP Post: 61.5 ± 4.9 cmH2O
  LPP Increase: 14.2 ± 2.7 cmH2O
  LPP Pre: 47.3 ± 5.0 cmH2O
Urethral resistance [3]; 3 mg/kg i.d.
  LPP Post: 77.3 ± 8.1 cmH2O
  LPP Increase: 29.7 ± 5.5 cmH2O
  LPP Pre: 47.6 ± 3.1 cmH2O
Human 5-HT2C receptors
  EC50: 2.6 nM
[4]; 30 minutes after administration, intravesical pressure rise by 50 cm H2O
  Urethra-closing reflex response Post: 10.40 ± 1.78 cmH2O
[4]; before administration, intravesical pressure rise by 50 cm H2O
  Urethra-closing reflex response Pre: 3.58 ± 0.42 cmH2O
[4]; ratio of Post value to Pre value
  Urethra-closing reflex response Ratio (Post/Pr): 2.82 ± 0.29
[5]
  Anal LPP Increase: 9.2±3.0 cmH2O
